{
  "source": "patent US12329738B2",
  "about": "“Urolithin A and a composition containing same for external use in inflammations of various etiologies” (WARSZAWSKI UNIWERSYTET MEDYCZNY, priority 2018, dated 2025)",
  "key": {"human fibroblasts": {"tested_on": "human fibroblasts", "settings": "human fibroblasts in vitro; cited from earlier work"}, "[1]": {"tested_on": "NHDF fibroblasts (human normal skin fibroblasts)", "settings": "comparative studies by the inventors", "method": "NHDF fibroblasts (human normal skin fibroblasts) were cultured in the DMEM medium supplemented with 10% FBS and a mixture of antibiotics—penicillin and streptomycin at 37° C., 5% CO2. […] After incubation with the compounds, the cells were washed twice with warm medium. The effect on cell viability was assessed using a standard MTT test."}, "[2]": {"settings": "animal model; oral and intravenous administration; cited from earlier work"}, "[3]": {"tested_on": "IL-8, TNF-alpha and IL-1beta", "assay": "IL-8, TNF-alpha and IL-1beta production by LPS-stimulated human neutrophils (ELISA)", "assay_type": "cell-based", "settings": "40 μM (FIG. 12: 5, 10 and 40 μM); LPS 100 ng/mL, 24 h; derivatives compared with urolithin A", "method": "After isolation, neutrophils were suspended in RPMI 1640 medium supplemented with L-glutamine, HEPES and 10% FBS and incubated with urolithin A and its acylated derivatives (SG1, SG2, SG3, SG4, SG1_m, SG2_m, SG3_m) at a concentration of 40 μM for 1 hour before stimulation with LPS from Escherichia coli (100 ng/mL). After 24 hours, IL-8, TNF-alpha and IL-1beta levels were determined using the immunochemical ELISA method (BD biosciences). The effect on neutrophil viability was assessed using annexin V and propidium iodide staining.\n(§1) The obtained results of experiments on in vitro models were analyzed using the Statistica 13 program (StatSoft, Inc., Tulsa, OK, USA) and presented as mean values±SEM. Statistical significance was set at P≤0.05. The results with established normal distribution in the D'Agostin and Pearson test were prepared using analysis of variance (ANOVA). Parametric post-hoc analysis was performed using Dunnett's test."}, "skin cells": {"tested_on": "skin cells", "settings": "in vitro; cited from earlier work"}, "hyaluronidase": {"tested_on": "hyaluronidase", "assay": "Hyaluronidase activity, pharmacopoeial method (USP)", "assay_type": "biochemical", "settings": "experiments by the inventors", "source_text": "US application US2010323985A discloses the use of a compound from the group of urolithins, urolithin B, as a component of a pharmaceutical or cosmetic preparation for topical and/or parenteral use. […] Urolithin B has been indicated as an example of one of hyaluronic acid degradation inhibitors, alone or in a mixture. With respect to the above, the inventors conducted experiments according to the pharmacopoeial method (USP), observing as a result no effect of urolithin A on hyaluronidase activity. […] Also, in the case of psoriasis, research is currently underway on effectiveness of hyaluronidase subcutaneous injections ([…] preparation; https://clinicaltrials.gov/ct2/show/NCT01987609)."}, "[4]": {"settings": "following ingestion of food products rich in ellagitannins; cited from earlier work"}, "[5]": {"assay": "Local application of urolithin A ointment on skin by volunteers", "assay_type": "in vivo, human", "settings": "1.0% urolithin A ointment in white petrolatum, 20 mg per 4 cm^2 once a day for two weeks", "procedure": "The therapeutic composition was an ointment prepared on the base of white petrolatum with 1.0% urolithin A added. The control ointment was white petrolatum without the addition of urolithin A. 1.0% urolithin A composition and the carrier—white petrolatum was applied on washed and dried skin by volunteers themselves, at a dose of 20 mg ointment per surface 4 cm^2 daily, once a day for two weeks.\nThe following parameters were taken into account in the study: feeling of discomfort after application of the composition on the skin, ease of application, discoloration of the skin at the site of application, redness of the skin at the site of application of the composition, degree of drying of the treated area of the skin, sensation of pinching, burning, itching and other types of discomfort. Participants in the study determined their level of satisfaction/dissatisfaction on a 10-point scale, 0 being dissatisfaction and 10 being satisfaction with the pharmaceutical composition of the present invention."}, "mRNA for TNF-alpha": {"tested_on": "mRNA for TNF-alpha", "assay": "TNF-alpha mRNA expression in THP-1 derived macrophages (real time PCR)", "assay_type": "cell-based, human", "settings": "40 μM; LPS stimulation; FIG. 14", "method": "(§2) Monocytes of the THP-1 line were cultured in RPMI 1640 medium supplemented with 10% FBS and 2 mM glutamine. For transformation of monocytes into macrophages, the cells were treated with 12.5 ng/mL PMA (phorbol 12-myristate 13-acetate) for 48 hours, then washed and incubated for 24 hours in a culture medium without PMA. After this time, urolithin A, urolithin B, iso-urolithin A and the corresponding glucuronides (GUA, GUB and GiUA) were added to the cells at a concentration of 40 μM. After 1 hour of incubation with the compounds, the cells were stimulated with LPS from Escherichia coli (10 ng/mL).\n(§3) To assess the level of TNF-alpha production, the cells were incubated for 6 hours, to assess the expression of mRNA for TNF-alpha, the cells were incubated for 24 hours, to assess the effect on ERK1/2 phosphorylation, the cells were incubated for 35 minutes.\n(§4) The level of TNF-alpha in the culture medium was determined using the immunochemical ELISA method (BD biosciences). Evaluation of the expression of mRNA for TNF-alpha was performed using real time PCR. After 24 hours of incubation, RNA was isolated using NucleoSpin RNA Clean-up (Macherey-Nagel). The amount and quality of isolated RNA was determined using 2100 Bioanalyzer (Agilent Technologies). The expression level of mRNA for TNF-α was determined using Brilliant II SYBR Green QPCR Kit and Aria Mx Real-Time PCR thermocycler (Agilent Technologies). The following were used as primers for TNF-alpha: forward: 5′-[…]-3′, reverse: 5′-[…]-3′. Beta-actin (ACTB) was used as the housekeeping gene; primer forward: 5′-[…]-3′, reverse: 5′-[…]-3′).\nas §1"}, "[6]": {"tested_on": "Wistar rats (DNCB-induced atopic dermatitis)", "assay": "Histologic assessment of ear skin in atopic dermatitis rat model", "assay_type": "in vivo", "settings": "lesions treated with the composition of urolithin A; day 32; FIG. 8", "method": "Wistar rats aged 5-6 weeks (at the start of the experiment) kept under standard conditions with free access to feed and water were used for the tests. The animals were divided into 5 groups, 8 individuals in each group. To prepare 2,4-dinitrochlorobenzene (DNCB) composition inducing inflammation, DNCB was dissolved in 70% ethanol to a final concentration of 1.5% (w/v). Therapeutic composition was an ointment based on white petrolatum with 0.2% or 1.0% urolithin A added. The control ointment was white petrolatum without addition of urolithin A. The induction of chronic atopic dermatitis involved local 9-fold infiltration with 60 μl 1.5% 2,4-dinitrochlorobenzene (DNCB) on each (external and internal) surface of the right ear over 3 weeks (3 times a week). Negative control was the right ear of rats without induction inflammation. Treatment of atopic dermatitis with 0.2% or 1.0% urolithin composition and white petrolatum (control) or 1.0% hydrocortisone composition (positive control) was started eight days after sensitization—one day before the fourth application of DNCB. Ointments with appropriate for given group drug added were applied in a total volume of about 20 μl to each ear surface one day before and 6 hours after each DNCB application (for a period of 3 weeks). […]"}, "TNF-alpha": {"tested_on": "TNF-alpha", "assay": "TNF-alpha production by THP-1 derived macrophages (ELISA)", "assay_type": "cell-based, human", "settings": "40 μM; LPS stimulation; FIG. 13", "method": "as §2, §3, §4, §1"}, "[7]": {"tested_on": "neutrophils and macrophages", "settings": "cited from earlier work"}},
  "data": [
    {"smiles": "O=c1oc2cc(O)ccc2c2ccc(O)cc12", "note": "[urolithin A]", "values": [
      {"measurement": "Collagen synthesis", "setting": "human fibroblasts", "value": "stimulated collagen synthesis"},
      {"measurement": "Inhibition of fibroblast aging", "setting": "human fibroblasts", "value": "no inhibition of fibroblast aging was found"},
      {"measurement": "mRNA expression for matrix metalloproteinase-1", "setting": "human fibroblasts", "value": "inhibited the mRNA expression"},
      {"measurement": "Antiproliferative activity on human skin fibroblast cells", "setting": "[1]", "value": "neither urolithin A, nor 8-acetyl-urolithin A, nor 3-acetyl-urolithin A showed antiproliferative activity"},
      {"measurement": "Toxicity", "setting": "[2]", "value": "no toxicity"},
      {"measurement": "Production of proinflammatory cytokines IL-8, TNF-alpha and IL-1beta by human neutrophils", "setting": "[3]", "value": "inhibition of the production of proinflammatory cytokines"},
      {"measurement": "Melanin production", "setting": "skin cells", "value": "reduced production of melanin"},
      {"measurement": "Effect on hyaluronidase activity", "setting": "hyaluronidase", "value": "no effect"},
      {"measurement": "Concentration in feces, tissues, blood and urine", "setting": "[4]", "value": "≤ 100", "unit": "µM"},
      {"measurement": "Adverse effects after skin application", "setting": "[5]", "value": "did not cause any adverse effects"},
      {"measurement": "TNF-alpha mRNA expression in THP-1 derived macrophages", "setting": "mRNA for TNF-alpha", "value": "inhibitory effect on TNF-alpha mRNA expression"},
      {"measurement": "Histology of skin lesions", "setting": "[6]", "value": "Mild epidermal hyperplasia, infiltration of mononuclear cells (mast cells) and neutrophils. A slight infiltration of inflammatory cells around the blood vessels"},
      {"measurement": "TNF-alpha production by THP-1 derived macrophages", "setting": "TNF-alpha", "value": "inhibition of pro-inflammatory cytokine TNF-alpha production"},
      {"measurement": "Cytotoxic or antiproliferative activity", "setting": "[7]", "value": "there was not observed either cytotoxic or antiproliferative activity"}
    ]}
  ]
}
